Tests used:
human ETA receptor = target: T1, human ETA receptor (Homo sapiens, UniProt P25101); assay: ETA receptor binding assay ([125I]-ET1) on membranes of CHO cells expressing cloned human ETA receptor; conditions: Table III
T1 construct: expressed in transfected cells; host or cells: CHO cells
T1 sequence (P25101 21-427): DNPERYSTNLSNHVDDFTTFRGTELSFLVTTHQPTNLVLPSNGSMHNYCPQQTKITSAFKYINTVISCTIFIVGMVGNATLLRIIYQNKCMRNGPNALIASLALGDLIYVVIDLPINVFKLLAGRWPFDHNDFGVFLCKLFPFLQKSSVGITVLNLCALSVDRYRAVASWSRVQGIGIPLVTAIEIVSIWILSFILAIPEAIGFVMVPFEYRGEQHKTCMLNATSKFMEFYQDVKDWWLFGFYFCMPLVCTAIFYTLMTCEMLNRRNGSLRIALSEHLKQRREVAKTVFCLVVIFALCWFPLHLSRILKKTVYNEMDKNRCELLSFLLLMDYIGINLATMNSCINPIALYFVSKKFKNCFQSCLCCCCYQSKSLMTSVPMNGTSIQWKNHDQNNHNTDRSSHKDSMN
Description: (§1) Cloned human ETA receptor-expressing CHO cells and guinea pig cerebellar membranes with >60% ETB compared with ETA receptors were used for binding studies.
The ETA receptor-expressing CHO cells were grown in F12 medium containing 10% fetal calf serum, 1% glutamine, 100 U/ml penicillin and 0.2% streptomycin (Gibco BRL, Gaithersburg, Md., USA). After 48 h, the cells were washed with PBS and incubated with 0.05% trypsin-containing PBS for 5 min. Neutralization was then carried out with F12 medium, and the cells were collected by centrifugation at 300×g. To lyze the cells, the pellet was briefly washed with lysis buffer (5 mM Tris-HCl, pH 7.4 with 10% glycerol) and then incubated at a concentration of 10^7 cells/ml of lysis buffer at 4° C. for 30 min. The membranes were centrifuged at 20,000×g for 10 min., and the pellet was stored in liquid nitrogen.
(§2) The nonspecific binding was determined using 10^-7 M ET1. After 30 min., the free and bound radioligand were separated by filtration through GF/B glass fiber filters (Whatman, England) on a Skatron cell collector (Skatron, Lier, Norway) and the filters were washed with ice-cold Tris-HCl buffer, pH 7.4 with 0.2% BSA. The radioactivity collected on the filters was quantified using a Packard 2200 CA liquid scintillation counter.
The Ki values shown in Table A were determined by non-linear regression analysis using the LIGAND program.

DU-145 prostate tumor = assay: DU-145 Model: human prostate (HTB 81) tumor fragments implanted subcutaneously in nude mice; assay type: in vivo
Description: For example, human tumors which have been grown in nude mice can be transplanted into new recipient mice using tumor fragments which are about 50 mg in size. The day of transplantation is designated as day 0. Five to fifteen days later, the mice are treated with the test compounds given as an intravenous or intraperitoneal injection, in groups of five to ten mice at each dose. Compounds are given daily for either 5, 10 or 15 days, at dosed from 0.1-1000 mg/kg of body weight.
Tumor diameters and body weights are measured periodically. Tumor mass is calculated using the diameters measured with Vernier calipers, and the formula:
(length×width2)/2=mg of tumor weight
Mean tumor weights are calculated for each treatment group relative to the untreated control tumors. The DU-145 Model is a specific example of this type of assay and is described below.
Human tumor fragments from prostate (HTB 81), which had been grown in nude mice were implanted subcutaneously via trochar, in the dorsal side of new recipient nude mice, as is well known in the art. The day of implantation is designated as day 0.
Treatment was commenced on day 11 post implantation using Compound I-1 of Table I. There were 6 mice in each treatment group with the mode of administration and amounts administered (mg/kg of body weight) described in Table XI. Compound I-1 was administered once a day for 10 days commencing, as earlier stated, at day 11 post implantation (Q1D×10:11).

ETB receptor = target: T2, ETB receptor (Cavia porcellus, UniProt H0VTF3); assay: ETB receptor binding assay ([125I]-RZ3) on guinea pig cerebellar membranes; conditions: Table III
T2 construct: Guinea pig cerebella were homogenized; from tissue; host or cells: guinea pig cerebellum membranes
T2 sequence (H0VTF3 27-415): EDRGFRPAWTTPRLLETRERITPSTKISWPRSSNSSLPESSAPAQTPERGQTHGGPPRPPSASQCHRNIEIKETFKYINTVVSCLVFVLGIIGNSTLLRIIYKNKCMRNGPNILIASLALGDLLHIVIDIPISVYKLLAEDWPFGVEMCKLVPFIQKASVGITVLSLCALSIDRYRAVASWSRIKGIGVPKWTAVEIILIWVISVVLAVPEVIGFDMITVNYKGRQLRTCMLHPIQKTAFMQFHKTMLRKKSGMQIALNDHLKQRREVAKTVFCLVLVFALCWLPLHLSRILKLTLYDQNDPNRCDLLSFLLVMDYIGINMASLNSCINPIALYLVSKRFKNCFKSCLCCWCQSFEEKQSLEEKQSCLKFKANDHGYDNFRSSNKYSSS
Description: as §1
Guinea pig cerebella were homogenized in a Potter-Elvejhem homogenizer and membranes were obtained by differential centrifugation at 1000×g for 10 min. and repeated centrifugation of the supernatant at 20,000×g for 10 min.
as §2

Compound `CCOC(c1ccccc1)(c1ccccc1)C(Oc1nc(OC)cc(OC)n1)C(=O)O` (stereo not drawn) [Compound I-4] has a Ki (human ETA receptor) of 7 nM.
`CCCOC(c1ccccc1)(c1ccccc1)C(Oc1nc(OC)cc(OC)n1)C(=O)O` (stereo not drawn) [Compound I-12] gave a Ki (human ETA receptor) of 19 nM.
`COC(=O)C(Oc1nc(OC)cc(OC)n1)C(OC)(c1ccccc1)c1ccccc1` (stereo not drawn) [Compound I-1, Methyl 2-(4,6-dimethoxy-pyrimidin-2-yloxy)-3-methoxy-3,3-diphenylpropionate] was tested, and the “Days for Tumor Weight = 1000 mg” value (DU-145 prostate tumor; 100 mg/kg IV, Q1Dx10:11) was 39.3 days, the “Mean Tumor Weight (MTW) on Day 33” value (DU-145 prostate tumor; 100 mg/kg IV, Q1Dx10:11) was 561 mg and the “Days for Tumor Weight = 1000 mg” value (DU-145 prostate tumor; 150 mg/kg IP, Q1DX10:11) was 59.3 days. The “Mean Tumor Weight (MTW) on Day 33” value (DU-145 prostate tumor; 150 mg/kg IP, Q1DX10:11) was 407 mg, the “Days for Tumor Weight = 1000 mg” value (DU-145 prostate tumor; 150 mg/kg IV, Q1DX10:11) was 37.4 days and the “Mean Tumor Weight (MTW) on Day 33” value (DU-145 prostate tumor; 150 mg/kg IV, Q1DX10:11) was 793 mg. The “Days for Tumor Weight = 1000 mg” value (DU-145 prostate tumor; 220 mg/kg IP, Q1DX10:11) was 50.9 days, the “Mean Tumor Weight (MTW) on Day 33” value (DU-145 prostate tumor; 220 mg/kg IP, Q1DX10:11) was 470 mg and the “MTW % T/C” value (DU-145 prostate tumor; Day 33, 100 mg/kg IV, Q1Dx10:11) was 45.54%. The “MTW % T/C” value (DU-145 prostate tumor; Day 33, 150 mg/kg IP, Q1DX10:11) was 33.04%, the “MTW % T/C” value (DU-145 prostate tumor; Day 33, 150 mg/kg IV, Q1DX10:11) was 64.37% and the “MTW % T/C” value (DU-145 prostate tumor; Day 33, 220 mg/kg IP, Q1DX10:11) was 38.15%. The “response to administration (reduction in the %T/C Mean Tumor Weight)” value (DU-145 prostate tumor; all doses, IV and IP) was “all treatment groups responded”.
Work on `COc1cc(OC)nc(OC(C(=O)O)C(OC)(c2ccccc2)c2ccccc2)n1` (stereo not drawn) [Compound I-2, 2-(4,6-Dimethoxy-pyrimidin-2-yloxy)-3-methoxy-3,3-diphenylpropionic acid] yielded a Ki (human ETA receptor) of 6 nM.
In the case of `COc1cc(OC)nc(OC(C(=O)O)C(OC)(c2ccc(F)cc2)c2ccc(F)cc2)n1` (stereo not drawn) [Compound I-60], the Ki (human ETA receptor) is reported as 33 nM and the Ki (ETB receptor) is reported as 970 nM.

Source: patent US6030975A, “Carboxylic acid derivatives, their preparation and use in treating cancer” (priority 1997, dated 2000)
